We go through four compounds from ChEMBL document CHEMBL4354784, “On the road to structure-based development of anti-virulence therapeutics targeting the type III secretion system injectisome” (Medchemcomm, 2019).

As usually defined, the pIC50 is −log10 of the IC50, conventionally taken in molar units. Usually inhibition stands for the relative decrease from the control value, in per cent. For orientation: pEC50 means the negative decadic logarithm of the EC50, by convention in mol/L. Higher therefore signals a low EC50. A word on the MIC50: it is the lowest concentration that inhibits either 50% of growth or 50% of the strains tested, depending on the study.

A short description of test [1]: Inhibition of Yersinia pseudotuberculosis serotype 3 T3SS assessed as reduction in YopH protein secretion using p-nitro phenyl phosphat/2-(N-morpholino)ethanesulfonic acid as substrate preincubated for 1 hr at 26 degC and subsequently incubated for 2 hrs at 37 degC followed by addition of substrate and measured after 15 mins.
For test [2], the system named is Yersinia pseudotuberculosis. Nature of the test: Inhibition of Yersinia pseudotuberculosis serotype 3 T3SS assessed as reduction in YopD protein expression at > 13 uM preincubated for 1 hr at 26 degC and subsequently incubated for 3 hrs at 37 degC by Western blot analysis relative to control. On the technique in general: A western blot detects proteins with antibodies after separation by electrophoresis.

The test system of test [3] is Yersinia pseudotuberculosis. Nature of the test: Inhibition of Yersinia pseudotuberculosis serotype 3 T3SS assessed as reduction in YopD protein secretion at > 13 uM preincubated for 1 hr at 26 degC and subsequently incubated for 3 hrs at 37 degC by Western blot analysis relative to control.
Test [4] can be described thus: Inhibition of Pseudomonas aeruginosa MDM1912 T3SS assessed as reduction in ExoS-BLA fusion protein secretion by measuring hydrolysis of the chromogenic beta-lactamase substrate nitrocefin by colorimetric method.
For another test, the system named is Salmonella enterica. Nature of the test: Antimicrobial activity against Salmonella enterica infected in mouse assessed as increasing survival rate on day 9 relative to control. The class given is functional.
Test [5] has as its system Pseudomonas aeruginosa. Nature of the test: Antimicrobial activity against Pseudomonas aeruginosa. The class given is functional, organism-based.
The subject of test [6] is Pseudomonas aeruginosa. Nature of the test: Antimicrobial activity against Pseudomonas aeruginosa infected in mouse assessed as increasing survival rate after 6 days (RVB = 20%). Format: functional.

pEC50, pIC50: −log10 of the molar value.

On to `Oc1ccc([C@@H]2c3c(O)cc(O)cc3[C@@H]3c4c(cc(O)cc4[C@H]2[C@@H]2c4cc(O)cc5c4[C@@H](c4cc(O)cc(O)c4[C@H]2c2ccc(O)cc2)[C@H](c2ccc(O)cc2)O5)O[C@H]3c2ccc(O)cc2)cc1`, for which the pIC50 in test [1] was below 5.00. Besides, the inhibition in test [2] and in test [3] was 100% each time.
On to `O=C(N/N=C/c1cc(Br)cc(Br)c1O)c1ccc([N+](=O)[O-])cc1`, for which, in test [4], the pIC50 was 6.10.
As for `Cc1ccc(C(C)C)c(O)c1` [THYMOL], the Survival in the test on Salmonella enterica was 70%.
For `NCCCNCCCCNCCCNC(=O)c1ccccc1C1=c2cc3c4c(c2Oc2c1cc1c5c2CCCN5CCC1)CCC[N+]=4CCC3`, in the test with Pseudomonas aeruginosa [5], the pEC50 was 5.00 and the MIC50 was above 10 µM. The Survival in the test on Pseudomonas aeruginosa [6] was determined as 100%.
